The values below come from patent US20050032873A1, “3-Amino chroman and 2-amino tetralin derivatives” (Wyeth, priority 2003, published 2005).

What is called Ki is the dissociation constant of the complex between target and ligand, obtained from inhibition or displacement. The EC50 is the midpoint of the concentration-response curve. The IC50 is the concentration needed to halve the response being measured.

Molecules are shown by their SMILES. Like-named read-outs stand apart in the source and are kept apart here.

Assay [1] addresses T1, serotonin transporter (Rattus norvegicus, UniProt P31652).
T1 construct: displace ^3H-paroxetine from male rat cortical membranes; from tissue; host or cells: male rat cortical membranes
The experiment in a line: 5-HT transporter affinity: displacement of 3H-paroxetine from male rat cortical membranes. The format is binding. The note with it: for Ki: displacement of 3H-paroxetine, male rat cortical membranes, read-out: 5-HT Transporter Affinity Ki. For orientation: Loss of bound radioactivity is the signal in a displacement assay; it reports binding, not function.

In assay [2] the target is T2, cloned human 5-HT1A receptors (Homo sapiens, UniProt P08908).
T2 construct: expressed in transfected cells
T2 sequence (P08908 1-422): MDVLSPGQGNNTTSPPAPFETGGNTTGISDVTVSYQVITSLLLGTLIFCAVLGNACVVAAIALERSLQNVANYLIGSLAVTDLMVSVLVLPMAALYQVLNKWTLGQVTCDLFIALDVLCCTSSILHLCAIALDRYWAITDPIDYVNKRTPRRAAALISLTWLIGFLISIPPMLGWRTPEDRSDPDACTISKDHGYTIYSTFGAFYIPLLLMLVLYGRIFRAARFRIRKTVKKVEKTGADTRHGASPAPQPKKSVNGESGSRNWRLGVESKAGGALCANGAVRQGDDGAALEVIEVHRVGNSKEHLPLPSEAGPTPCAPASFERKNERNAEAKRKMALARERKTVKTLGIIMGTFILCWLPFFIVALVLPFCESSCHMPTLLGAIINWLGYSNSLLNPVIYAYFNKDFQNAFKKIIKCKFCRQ
The experiment in a line: 35S-GTPγS binding assay, 5-HT1A function. The note with it: for EC50: agonist potency; for IC50: antagonist potency, reversal of 8-OH-DPAT, read-out: 5-HT1A Function GTPγS IC50. The format is biochemical.

In assay [3] the target is T3, 5-HT1A receptor (Homo sapiens, UniProt P08908).
T3 sequence (P08908 1-422): T2 sequence (P08908 1-422)
The assay can be described thus: cAMP accumulation assay, 5-HT1A function. The format is cell-based. The note with it: for EC50: cells marked EC50 (agonist); for Emax / 5-HT1A Function cAMP (Emax): in brackets after EC50 or IC50; for Emax: read-out: 5-HT1A Function cAMP (Emax); for IC50: cells marked IC50 (antagonist), read-out: 5-HT1A Function cAMP IC50. Background: cAMP levels reflect the balance of adenylyl cyclase and phosphodiesterase activity.

In assay [4] the target is T3, 5-HT1A receptor. The assay can be described thus: 5-HT1A receptor affinity: displacement of [3H] 8-OH-DPAT. The note with it: displacement of [3H] 8-OH-DPAT; CHO cells stably transfected with human 5-HT1A receptors; read-out: 5-HT1A Receptor Affinity Ki. On the set-up: expressed in transfected cells. The format is binding.
[5] abbreviates: maximum stimulatory effect, in brackets after EC50, read-out: 5-HT1A Function GTPγS (Emax).
The mark [6] stands for this setting: maximum inhibitory effect, in brackets after IC50.

T1 sequence (P31652 whole entry): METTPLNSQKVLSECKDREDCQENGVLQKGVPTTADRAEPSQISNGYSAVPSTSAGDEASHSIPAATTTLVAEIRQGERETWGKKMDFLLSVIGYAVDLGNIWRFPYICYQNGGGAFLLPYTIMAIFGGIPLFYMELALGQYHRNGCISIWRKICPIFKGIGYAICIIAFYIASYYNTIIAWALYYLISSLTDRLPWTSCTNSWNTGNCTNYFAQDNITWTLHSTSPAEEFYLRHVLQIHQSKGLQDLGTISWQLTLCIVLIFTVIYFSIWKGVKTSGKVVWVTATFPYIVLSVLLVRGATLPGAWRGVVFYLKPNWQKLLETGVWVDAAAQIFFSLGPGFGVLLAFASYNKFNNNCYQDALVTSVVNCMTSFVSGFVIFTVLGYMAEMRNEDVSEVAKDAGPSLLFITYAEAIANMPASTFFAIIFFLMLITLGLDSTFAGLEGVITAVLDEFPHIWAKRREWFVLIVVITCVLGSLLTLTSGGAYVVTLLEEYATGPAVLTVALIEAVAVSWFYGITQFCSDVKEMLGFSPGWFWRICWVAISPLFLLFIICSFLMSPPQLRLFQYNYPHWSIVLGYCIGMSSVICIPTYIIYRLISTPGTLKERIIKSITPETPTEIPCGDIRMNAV

With `CCCN(C1COc2cccc(OC)c2C1)[C@H]1CC[C@@H](c2c[nH]c3ccc(F)cc32)CC1` (relative stereo) [Compound 182, cis-N-[4-(5-fluoro-1H-indol-3-yl)cyclohexyl]-5-methoxy-N-propylchroman-3-amine], the Ki was 0.128 µM in assay [1] and 0.237 µM in assay [4]. The EC50 in assay [2] was determined as 0.893 µM; in assay [3], 0.184 µM. The Emax in assay [2] (setting [5]) amounted to 64.5%; in assay [3], 65%.

Regarding `CCCN(C1COc2cccc(OC)c2C1)[C@H]1CC[C@H](c2c[nH]c3ccc(F)cc32)CC1` (relative stereo) [Compound 183, trans-N-[4-(5-fluoro-1H-indol-3-yl)cyclohexyl]-5-methoxy-N-propylchroman-3-amine], the “5-HT Transporter Affinity, % @ 1 μM” value in assay [1] (@ 1 μM) is listed as 53% @ 1 μM. The figures for the half-maximal effective concentration (EC50) in assay [2] and in assay [3] were 10 µM and 0.302 µM, respectively. The Emax in assay [2] (setting [5]) stood at 35%; in assay [3] it was 65.5%. Moreover, the inhibition constant Ki in assay [4] came to 0.183 µM.

`CCCN(C(C)CCc1c[nH]c2ccc(F)cc12)C1COc2c(F)ccc(C(N)=O)c2C1` (single isomer, unassigned) [Compound 12a, 8-fluoro-3-[[3-(5-fluoro-1H-indol-3-yl)-1-methylpropyl](propyl)amino]-3,4-dihydro-2H-chromene-5-carboxamide]: the Ki in assay [1] turned out to be 0.022 µM; in assay [4] it was 0.00519 µM. Also, the half-maximal inhibitory concentration (IC50) in assay [2] is 0.323 µM; in assay [3] it was 0.0475 µM. Further, the 5-HT1A Function GTPγS (Imax) in assay [2] (setting [6]) was 96%. The 5-HT1A Function cAMP (Emax) in assay [3] turned out to be 0%.

In the case of `CCCN(C(C)CCc1c[nH]c2ccc(F)cc12)C1COc2c(F)ccc(C(N)=O)c2C1` (single isomer, unassigned) [Compound 12b, 8-fluoro-3-[[3-(5-fluoro-1H-indol-3-yl)-1-methylpropyl](propyl)amino]-3,4-dihydro-2H-chromene-5-carboxamide], the Ki in assay [1] was 0.05 µM; in assay [4], 0.0194 µM. In addition, the EC50 was found to be 0.366 µM in assay [2] and 0.0626 µM in assay [3]. In assay [2] (setting [5]), the Emax came out at 73.5%. Moreover, the 5-HT1A Function cAMP (Emax) in assay [3] stood at 78%.

With `CCCN(C(C)CCc1c[nH]c2ccc(F)cc12)C1COc2c(F)ccc(C(N)=O)c2C1` (single isomer, unassigned) [Compound 12c, 8-fluoro-3-[[3-(5-fluoro-1H-indol-3-yl)-1-methylpropyl](propyl)amino]-3,4-dihydro-2H-chromene-5-carboxamide], the Ki in assay [1] amounted to 0.121 µM; in assay [4] it was 0.0488 µM. Further, the IC50 is 3 µM in assay [2] and 0.0737 µM in assay [3]. The same molecule displayed a 5-HT1A Function GTPγS (Imax) in assay [2] (setting [6]) of 100%. For the same molecule, the 5-HT1A Function cAMP (Emax) in assay [3] was 0%.

In the case of `CCCN(C(C)CCc1c[nH]c2ccc(C#N)cc12)C1COc2c(F)ccc(C(N)=O)c2C1` (single isomer, unassigned) [Compound 13a, 3-[[3-(5-cyano-1H-indol-3-yl)-1-methylpropyl](propyl)amino]-8-fluoro-3,4-dihydro-2H-chromene-5-carboxamide], the inhibition constant (Ki) in assay [1] turned out to be 0.0235 µM; in assay [4], 0.0243 µM. In addition, the IC50 in assay [2] was 0.534 µM; in assay [3], 0.0766 µM. In addition, the Emax in assay [2] (maximum inhibitory effect, in brackets after IC50, read-out: 5-HT1A Function GTPγS (Imax)) was found to be 100%. This molecule came in with a 5-HT1A Function cAMP (Emax) in assay [3] of 0%.

For the molecule `CCN(CCCCn1ccc2c(F)cccc21)C1COc2c(F)ccc(C(N)=O)c2C1` (centres unmarked) [Compound 201, 3-{Ethyl[4-(4-fluoro-1H-indol-1-yl)butyl]amino}-8-fluorochromane-5-carboxamide], the inhibition constant Ki in assay [1] worked out at 0.095 µM; in assay [4], 0.0427 µM. Moreover, a half-maximal response in assay [3] (EC50) required 0.21 µM. Further, the Emax in assay [3] was determined as 92%.

In the case of `CCCN(CCCCn1ccc2c(F)cccc21)C1COc2c(F)ccc(C(N)=O)c2C1` (centres unmarked) [Compound 202, 8-Fluoro-3-[[4-(4-fluoro-1H-indol-1-yl)butyl](propyl)amino]chromane-5-carboxamide], in assay [1], the Ki stood at 0.21 µM. For the same molecule, in assay [3], the EC50 was 0.137 µM and the Emax came out at 78%. The Ki in assay [4] turned out to be 0.014 µM.
